From patent US20250236616A1, “IMMUNOMODULATING AZALIDES” (Zoetis Services LLC, priority 2021, published 2025)
Like-named read-outs stand apart in the source and are kept apart here. Marks after values point to notes of the source that are not given here.

Legend:
Format in all cases: cell-based
[1] = test system: TNF-α; assay: Whole bovine blood assay, LPS-induced TNF-α; details: fresh whole bovine blood, LPS stimulant, top drug concentration 250 μM
Procedure, shortened: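 Fresh heparinized bovine whole blood was preincubated with compound 4 h at 37 °C, then stimulated with LPS (final 1 μg/mL) for 18 h at 37 °C. Plasma TNF-α was quantified by MSD U-Plex chemiluminescent immunoassay, normalized to total protein (BCA), and IC50 taken for LPS-induced TNF-α inhibition.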

[2] = test system: BRD pathogens, M. haemolytica and P. multocida; assay: MIC screening panel, BRD pathogens (CLSI broth micro-dilution)
From the text: Primary screening of the compounds of the invention included the evaluation of antibacterial activity of analogs through determination of microbial inhibition concentration (MIC) as per CLSI guidelines. The screening panel included the relevant BRD pathogens: 1) M. haemolytica (e.g., 12726, 46571 and 49023, all AHDRCC; and 33396 (ATCC)); and 2) P. multocida (e.g., 34135 and 46572 (both AHDRCC) and 43137 (ATCC)). In some instances, H. somni (A700025K) pathogens were also included in the screening panel. The AHDRCC strains originated from the Zoetis BRD/SRD surveillance program and refer to the Animal Health Development and Research Culture Collection. In addition, the screen assessed S. aureus (29213 ATCC) as a representative Gram-positive isolate, E.faecalis (19433 ATCC) as a commensal gram-positive gastrointestinal bacterium and E. coli (100, 3110 and 25922 (ATCC)) for the evaluation of efflux potential. The screening panel BRD pathogens were assessed in determining antibacterial activity of the Formula (1) compounds.
All relevant BRD pathogens were initially screened at a top concentration of 64 μg/mL of a Formula (1) compound in an eleven-point dilution series. […] If an Example was purified further, the MICs moved […] essentially two dilutions across all strains tested in the screening panel.
In-Vitro MIC Model Compounds were analyzed for antibacterial activity against a panel of animal health specific gram-positive and gram-negative clinical strains by diluting compounds in DMSO to an appropriate stock concentration to determine the Minimal Inhibitory Concentration (MIC) via a semi-automated broth micro-dilution method (CLSI reference method) with QC strains and anti-microbial agent(s). Specifically, bacteria were grown overnight on TSA w/5% sheep blood agar plates and diluted in saline buffer to a McFarland Standard 0.5, then further diluted in cation-ion adjusted Mueller Hinton Broth to a final concentration of approximately 5×10^5 CFU/mL. 100 μL of inoculated media was added to 96-well plate(s) with 3 μL of serially diluted compound in each row. Depending on strain (see CLSI reference method), bacteria were incubated 18-22 hours at 35-37° C. in ambient air, with 5% CO2 or anaerobically (up to 48 hours).

[3] = test system: IL-1β; assay: Whole bovine blood assay, LPS-induced IL-1β (inhibition / overstimulation); details: drug concentration giving overstimulation (OS) of LPS-induced IL-1β, top concentration 250 μM
Procedure, shortened: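 Fresh heparinized bovine whole blood was preincubated with compound at varying concentrations for 4 h at 37 °C, then stimulated with 1 μg/mL LPS for 18 h. Plasma IL-1β was measured by MSD chemiluminescent immunoassay and normalized to total protein. Values cover inhibition and concentration-dependent overstimulation.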

[4] = test system: IL-6; assay: Whole bovine blood assay, LPS-induced IL-6; details: fresh whole bovine blood, LPS stimulant, top drug concentration 250 μM
[5] = Table B, at least one BRD pathogenic strain, top concentration 64 μg/mL, read-out: MIC flag (*) for BRD pathogenic strains
[6] = Table B, at least one BRD pathogenic strain, top concentration 64 μg/mL
[7] = Table C, at least one BRD pathogenic strain, top concentration 64 μg/mL

Compound	IC50 ([1]; Bos taurus) [µM]	minimal effective concentration ([3]; Bos taurus, 18 h) [µM]	IC50 ([4]; Bos taurus) [µM]	IC50 [1] [µM]	IC50 [4] [µM]	MIC [2, 5] [µg/mL]	further results
CC[C@H]1OC(=O)[C@H](C)[C@@H](O[C@H]2C[C@@](C)(OC)[C@](O)(CCl)[C@H](C)O2)[C@H](C)[C@@H](O[C@@H]2O[C@H](C)C[C@H](N(C)S(=O)(=O)c3ccc(Cl)cc3)[C@H]2O)[C@](C)(O)C[C@@H](C)CN[C@H](C)[C@@H](O)[C@]1(C)O [Example A4-1, 4-chloro-N-((2S,3R,4S,6R)-2-(((2R,3S,4R,5R,8R,10R,11R,12S,13S,14R)-13-(((2R,4R,5S,6S)-5-(chloromethyl)-5-hydroxy-4-methoxy-4,6-dimethyltetrahydro-2H-pyran-2-yl)oxy)-2-ethyl-3,4,10-trihydroxy-3,5,8,10,12,14-hexamethyl-15-oxo-1-oxa-6-azacyclopentadecan-11-yl)oxy)-3-hydroxy-6-methyltetrahydro-2H-pyran-4-yl)-N-methylbenzenesulfonamide]	44	12	26	–	–	–	MIC ([2]; BRD pathogens M. haemolytica and P. multocida, read-out: antibacterial / non-antibacterial (MIC class)): > 64 µg/mL
CC[C@H]1OC(=O)[C@H](C)[C@@H](O)[C@H](C)[C@@H](O[C@@H]2O[C@H](C)C[C@H](N(C)S(=O)(=O)c3scnc3C)[C@H]2Oc2ccc(F)cc2)[C@](C)(O)C[C@@H](C)CN[C@H](C)[C@@H](O)[C@]1(C)O [Example A-26]	–	–	–	130	49	–	MIC flag (*) for BRD pathogenic strains ([2]; Table A, at least one BRD pathogenic strain, top concentration 64 μg/mL): A-26* (MIC ≤64 μg/mL for at least one BRD pathogenic strain); minimal effective concentration [3]: 16 µM
CCCNC[C@]1(O)[C@H](C)O[C@@H](O[C@H]2[C@H](C)[C@@H](O[C@@H]3O[C@H](C)C[C@H](N(C)S(=O)(=O)c4cccnc4)[C@H]3O)[C@](C)(O)C[C@@H](C)CN[C@H](C)[C@@H](O)[C@](C)(O)[C@@H](CC)OC(=O)[C@@H]2C)C[C@@]1(C)OC [Example B-12, N-((2S,3R,4S,6R)-2-(((2R,3S,4R,5R,8R,10R,11R,12S, 13S,14R)-2-ethyl-3,4,10-trihydroxy-13-(((2R,4R,5S,6S)-5-hydroxy-4-methoxy-4,6-dimethyl-5-((propylamino)methyl)tetrahydro-2H-pyran-2-yl)oxy)-3,5,8,10,12,14-hexamethyl-15-oxo-1-oxa-6-azacyclopentadecan-11-yl)oxy)-3-hydroxy-6-methyltetrahydro-2H-pyran-4-yl)-N-methylpyridine-3-sulfonamide]	–	> 250	–	–	–	≤ 64	–
CC[C@H]1OC(=O)[C@H](C)[C@@H](O[C@H]2C[C@@](C)(OC)[C@](O)(CNC3CC3)[C@H](C)O2)[C@H](C)[C@@H](O[C@@H]2O[C@H](C)C[C@H](N(C)S(=O)(=O)c3ccc(Cl)cc3)[C@H]2O)[C@](C)(O)C[C@@H](C)CN[C@H](C)[C@@H](O)[C@]1(C)O [Example B-23, 4-chloro-N-((2S,3R,4S,6R)-2-(((2R,3S,4R,5R,8R,10R,11R,12S,13S, 14R)-13-(((2R,4R,5S,6S)-5-((cyclopropylamino)methyl)-5-hydroxy-4-methoxy-4,6-dimethyltetrahydro-2H-pyran-2-yl)oxy)-2-ethyl-3,4, 10-trihydroxy-3,5,8, 10, 12,14-hexamethyl-15-oxo-1-oxa-6-azacyclopentadecan-11-yl)oxy)-3-hydroxy-6-methyltetrahydro-2H-pyran-4-yl)-N-methylbenzenesulfonamide]	3	–	13	–	–	≤ 64	–
CC[C@H]1OC(=O)[C@H](C)[C@@H](O[C@H]2C[C@@](C)(OC)[C@](O)(CNCCc3ccc(C(F)(F)F)cc3)[C@H](C)O2)[C@H](C)[C@@H](O[C@@H]2O[C@H](C)C[C@H](N(C)S(=O)(=O)c3ccc(Cl)cc3)[C@H]2O)[C@](C)(O)C[C@@H](C)CN[C@H](C)[C@@H](O)[C@]1(C)O [Example B-31, 4-chloro-N-((2S,3R,4S,6R)-2-(((2R,3S,4R,5R,8R,10R,11R, 12S, 13S, 14R)-2-ethyl-3,4,10-trihydroxy-13-(((2R,4R,5S,6S)-5-hydroxy-4-methoxy-4,6-dimethyl-5-(((4-(trifluoromethyl)phenethyl)amino)methyl)tetrahydro-2H-pyran-2-yl)oxy)-3,5,8,10, 12,14-hexamethyl-15-oxo-1-oxa-6-azacyclopentadecan-11-yl)oxy)-3-hydroxy-6-methyltetrahydro-2H-pyran-4-yl)-N-methylbenzenesulfonamide]	4	–	7	–	–	≤ 64	–
CC[C@H]1OC(=O)[C@H](C)[C@@H](O[C@H]2C[C@@](C)(OC)[C@](O)(CNCCc3ccc(C(F)(F)F)cc3)[C@H](C)O2)[C@H](C)[C@@H](O[C@@H]2O[C@H](C)C[C@H](N(C)S(=O)(=O)Nc3ccc(C(F)(F)F)cc3)[C@H]2O)[C@](C)(O)C[C@@H](C)CN[C@H](C)[C@@H](O)[C@]1(C)O [Example B-79]	–	–	–	7	7	–	MIC flag (*) for BRD pathogenic strains [2, 6]: B79* (MIC ≤64 μg/mL for at least one BRD pathogenic strain)
CCCNC[C@]1(O)[C@H](C)OC(O[C@H]2[C@H](C)[C@@H](O[C@@H]3O[C@H](C)C[C@H](N(C)S(=O)(=O)c4cc(Br)c(Br)s4)[C@H]3Oc3ccc(OC)cc3)[C@](C)(O)C[C@@H](C)CN[C@H](C)[C@@H](O)[C@](C)(O)[C@@H](CC)OC(=O)[C@@H]2C)C[C@@]1(C)OC (stereo partly drawn) [Example B-105, 4,5-dibromo-N-[(2S,3R,4S,6R)-2-[[(2R,3S,4R,5R,8R,10R,11R, 12S, 13S, 14R)-2-ethyl-3,4, 10-trihydroxy-13-[(4R,5S,6S)-5-hydroxy-4-methoxy-4,6-dimethyl-5-(propylaminomethyl)oxan-2-yl]oxy-3,5,8, 10, 12,14-hexamethyl-15-oxo-1-oxa-6-azacyclopentadec-11-yl]oxy]-3-(4-methoxyphenoxy)-6-methyloxan-4-yl]-N-methylthiophene-2-sulfonamide]	12	3	7	–	–	≤ 64	–
(2R,3S,4R,5R,8R,10R,11R,12S, 13S, 14R)-2-ethyl-3,4, 10-trihydroxy-13-[(2R,4R,5S,6S)-5-hydroxy-4-methoxy-4,6-dimethyl-5-(piperidin-1-ylmethyl) oxan-2-yl]oxy-11-[(2R,3S,4R,6S)-3-hydroxy-4-[(4-methoxyphenyl) sulfamoyl-methylamino]-6-methyloxan-2-yl]oxy-3,5,8,10, 12,14-hexamethyl-15-oxo-1-oxa-6-azacyclopentadecane [Example C-27]	–	–	–	73	72	–	MIC flag (*) for BRD pathogenic strains [2, 7]: C-27* (MIC ≤64 μg/mL for at least one BRD pathogenic strain)
(2R,3S,4R,5R,8R,10R,11R, 12S, 13S, 14R)-2-ethyl-3,4, 10-trihydroxy-13-[(2R,4R,5S,6S)-5-hydroxy-4-methoxy-4,6-dimethyl-5-(piperidin-1-ylmethyl) oxan-2-yl]oxy-11-[(2R,3S,4R,6S)-3-hydroxy-6-methyl-4-[methyl-[(3-methylphenyl) sulfamoyl]-amino]oxan-2-yl]oxy-3,5,8, 10, 12,14-hexamethyl-15-oxo-1-oxa-6-azacyclopentadecane [Example C-26]	–	–	–	16	25	–	MIC flag (*) for BRD pathogenic strains [2, 7]: C-26* (MIC ≤64 μg/mL for at least one BRD pathogenic strain)
N-((2S,3R,4S,6R)-2-(((2R,3S,4R,5R,8R,10R,11R,12S,13S,14R)-2-ethyl-3,4,10-trihydroxy-13-(((2R,4R,5S,6S)-5-hydroxy-4-methoxy-4,6-dimethyl-5-((propylamino)methyl)tetrahydro-2H-pyran-2-yl)oxy)-3,5,6,8,10,12,14-heptamethyl-15-oxo-1-oxa-6-azacyclopentadecan-11-yl)oxy)-3-(4-fluorophenoxy)-6-methyltetrahydro-2H-pyran-4-yl)-N, 1-dimethyl-1H-imidazole-2-sulfonamide [Example B-162]	–	–	–	8	9	–	MIC flag (*) for BRD pathogenic strains [2, 6]: B-162* (MIC ≤64 μg/mL for at least one BRD pathogenic strain)
